Measurements: patent publication US7173010B2, “Orphanin FQ receptor” (Regents of the University of Michigan, priority 2003, dated 2007)
No end group written: not given here.

What was measured:
OFQ receptor = biological target: T1, OFQ receptor (Rattus norvegicus, UniProt P35370); type: cell-based; settings: Cos-7 cells transfected with OFQ receptor gene
T1 construct: in Cos-7 cells transfected with OFQ receptor gene; expressed in transfected cells; host or cells: Cos-7
Source text: Orphanin FQ is a neuropeptide that structurally resembles an opioid peptide. […] While not being limited to any particular mechanism, the present invention contemplates that Orphanin FQ stimulates peristalsis and enhances colonic transit by inhibiting purinergic pathways in myenteric plexus. To delineate the molecular interactions between OFQR and its ligands, Cos-7 cells were transfected with normal or chimeric OFQR genes. […] The ability of Orphanin FQ and related peptides to inhibit cAMP production in Cos-7 cells was evaluated. […] Dynorphin encoding nucleic acids and gene products are known in the art, see for example, NM_024411, NM_133828, NM_174139, NM_018863, M10088, AH002816, K02268, K02267, Alo34562, U58500, and U38912.

[1] = biological target: T2, Orphanin FQ receptor (OFQR) (Rattus norvegicus, UniProt P35370); test: Inhibition of [^125I] Y14-OFQ17 binding / specific OFQ binding in Cos-7 cells transfected with normal OFQR gene; settings: Cos-7 cells transfected with OFQR gene; for IC50: read-out: IC50, concentration dependent inhibition of [^125I] Y14-OFQ17 binding
T2 construct: expressed in transfected cells; host or cells: Cos-7

[2] = tested on: circular muscle strips of distal colon; test: Spontaneous contraction of circular muscle strips of distal colon from rats with postoperative ileus, in vitro; design: species or system rat; settings: strips from rats with PI, 4 h after surgery
Experimental: In vitro and in vivo colonic motility studies were performed using a known rat model of PI. Rats equipped with a colonic cannula underwent a sham operation or laparotomy plus simple cecum manipulation. Circular muscle strips of distal colon were studied in vitro 4 h after surgery. Cecum manipulation reduced spontaneous colonic muscle contraction by 50% compared to sham operation. […] Similarly, OFQ (10^−7 mol/L) reversed the inhibitory effects; contraction increased 450±60% over basal. […] ATP in myenteric neurons increased 2.5-fold, as measured by quinacrine immunofluorescence. In response to electrical field stimulation, ATP release (luciferase assay) from colonic tissue after cecum manipulation was 50% more than after sham operation. In vivo measurement of colonic transit using carmine migration was performed 4 h after cecum manipulation. In sham-operated rats, carmine migrated 90.8±6.5% of the colon length in 2 h. Cecum manipulation slowed transit 68±5% compared to sham operation. OFQ dose-dependently reversed delayed colonic transit evoked by cecum manipulation (0.5 and 1 nmol/L OFQ improved transit to 76±4% and 94±3%). […] These changes contribute to delayed colonic transit. OFQ, a potent inhibitor of purinergic transmission, reversed PI in rats.

colonic contractions = test: Colonic contractions after infusion of peptide; type: in vivo
colonic transit = test: Colonic transit (geometric center) after subcutaneous administration; type: in vivo

T2 sequence (P35370 whole entry): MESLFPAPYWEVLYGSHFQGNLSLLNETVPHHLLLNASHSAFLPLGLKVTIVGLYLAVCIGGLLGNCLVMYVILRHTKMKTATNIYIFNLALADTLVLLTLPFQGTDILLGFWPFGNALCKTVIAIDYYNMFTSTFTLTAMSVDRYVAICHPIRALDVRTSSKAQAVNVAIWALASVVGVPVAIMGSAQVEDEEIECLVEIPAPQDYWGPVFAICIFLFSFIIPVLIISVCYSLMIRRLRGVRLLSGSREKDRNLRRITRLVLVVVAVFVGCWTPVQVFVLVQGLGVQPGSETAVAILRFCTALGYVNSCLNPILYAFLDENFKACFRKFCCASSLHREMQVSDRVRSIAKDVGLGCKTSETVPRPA
T1 sequence (P35370 whole entry): as above

For Pertussis toxin, the “effect on the inhibitory action of OFQ on cAMP production” value (OFQ receptor) was “reversed the inhibitory action of OFQ”.

With “Dynorphin 17: Dynorphin peptide tested for effect on OFQ binding” the “effect on OFQ binding” value [1] was “no effect”.

PPADGS was tested, and the “enhancement of spontaneous contraction over basal” value (from here on “enhancement … over basal”) ([2]; 3×10^−5 mol/L) was 5±4%.

“substitution by tyrosine: Orphanin FQ with Phe in position 1 substituted by tyrosine (YGGFTGARKSARKLANQ; Nociceptin; UniProt Q13519 130-146, looked up, variant F1Y)” was tested, and the “Orphanin FQ activity of substituted analogues” value (colonic contractions; in vivo) was “no loss of activity”.

With “Orphanin FQ(1–12): Orphanin FQ fragment, amino acids 1–12 (FGGFTGARKSAR; Nociceptin; UniProt Q13519 130-141, looked up, fragment)” the “potency relative to Orphanin FQ(1–17), times less potent” value (colonic contractions; in vivo) was 100 times.

In the case of “β endorphin 31: opioid peptide tested for effect on OFQ binding”, the “effect on OFQ binding” value [1] is reported as “no effect”.

With Nc1c(S(=O)(=O)O)cc(Nc2ccc(Nc3nc(Cl)nc(Nc4cccc(S(=O)(=O)O)c4)n3)c(S(=O)(=O)O)c2)c2c1C(=O)c1ccccc1C2=O [reactive blue 2] the “enhancement … over basal” value ([2]; 3×10^−5 mol/L) was 287±20%.

Cc1ccc(C(=O)Nc2ccc(S(=O)(=O)O)c3cc(S(=O)(=O)O)cc(S(=O)(=O)O)c23)cc1NC(=O)c1cccc(NC(=O)Nc2cccc(C(=O)Nc3cc(C(=O)Nc4ccc(S(=O)(=O)O)c5cc(S(=O)(=O)O)cc(S(=O)(=O)O)c45)ccc3C)c2)c1 [Suramin] was tested, and the “enhancement … over basal” value ([2]; 10^−4 mol/L) was 210±15%.

With FGGFTGARKSA [OFQ11] the IC50 [1] was 5000 nM.

In the case of “Orphanin FQ(1–13): Orphanin FQ fragment, amino acids 1–13”, the “potency in stimulating contractions compared with full peptide Orphanin FQ(1–17)” value (colonic contractions; in vivo) is reported as “same potency”.

Compound FGGFTGAKKSARKLANQ [R8K] has an IC50 [1] of 0.1 nM.

Work on FGGFTGARKSARCLANQ [K13C] yielded an IC50 [1] of 0.1 nM.

“replacement of Arg^8 by L-alanin: Orphanin FQ with Arg8 replaced by L-alanine (FGGFTGAAKSARKLANQ; Nociceptin; UniProt Q13519 130-146, looked up, variant R8A)” was tested, and the “Orphanin FQ activity of substituted analogues” value (colonic contractions; in vivo) was “complete loss of activity”.

With “Dyn A: Dynorphin A, peptide with structural homology to Orphanin FQ (YGGFLRRIRPKLKWDNQ; Dynorphin A(1-17); UniProt P01213 207-223, looked up)” the “type of contractions induced” value (colonic contractions; infusion 100 nmol/kg/min) was “evoked non-migrating simultaneous contractions”, the “colonic transit, geometric center” value (colonic transit; 30 nmol/kg) was 3.14±0.21 and the “colonic transit, geometric center” value (colonic transit; 100 nmol/kg) was 2.42±0.17.
